From patent US10399940B2, “Substituted pyrrolidines and methods of use” (AbbVie S.à.r.l., priority 2016, dated 2019)
Where two headings read alike, the source gives them in different places.

Molecular target: T1, F508delCFTR (Homo sapiens, UniProt P13569, DEL508-508)
T1 construct: expressed in transfected cells; host or cells: CFBE41o- (human lung derived epithelial cell line), doxycycline-inducible expression
Assay: Cell Surface Expression-Horse Radish Peroxidase (CSE-HRP) assay
Assay type: cell-based
Details: CFBE41o-F508delCFTR-HRP cells; for Maximum % activity (with co-corrector): with co-corrector (2 μM); for Maximum % activity (with co-corrector) / Maximum % activity (without co-corrector): normalized to on-plate positive control, highest concentration 20 μM
Procedure, shortened: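 CFBE41o- cells expressed F508delCFTR with HRP in the fourth exofacial loop, induced by 0.5 μg/mL doxycycline for 72 h at 37 °C. Compounds alone or with 2 μM co-corrector ran 18–24 h at 33 °C, 8-point 3-fold from 20 μM. Washed-cell luminol luminescence was normalized to DMSO and positive control, fitted sigmoidally for EC50 (three plates).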

[1] = test compound without co-corrector, 18-24 hours at 33° C., read-out: EC50 (without co-corrector)
[2] = with co-corrector (2 μM of 3-[(2R,4R)-4-({[1-(2,2-difluoro-1,3-benzodioxol-5-yl)cyclopropyl]carbonyl}amino)-7-methoxy-3,4-dihydro-2H-chromen-2-yl]benzoic acid), read-out: EC50 (with co-corrector)

T1 sequence (P13569 with tags, fused parts or gaps DEL508-508): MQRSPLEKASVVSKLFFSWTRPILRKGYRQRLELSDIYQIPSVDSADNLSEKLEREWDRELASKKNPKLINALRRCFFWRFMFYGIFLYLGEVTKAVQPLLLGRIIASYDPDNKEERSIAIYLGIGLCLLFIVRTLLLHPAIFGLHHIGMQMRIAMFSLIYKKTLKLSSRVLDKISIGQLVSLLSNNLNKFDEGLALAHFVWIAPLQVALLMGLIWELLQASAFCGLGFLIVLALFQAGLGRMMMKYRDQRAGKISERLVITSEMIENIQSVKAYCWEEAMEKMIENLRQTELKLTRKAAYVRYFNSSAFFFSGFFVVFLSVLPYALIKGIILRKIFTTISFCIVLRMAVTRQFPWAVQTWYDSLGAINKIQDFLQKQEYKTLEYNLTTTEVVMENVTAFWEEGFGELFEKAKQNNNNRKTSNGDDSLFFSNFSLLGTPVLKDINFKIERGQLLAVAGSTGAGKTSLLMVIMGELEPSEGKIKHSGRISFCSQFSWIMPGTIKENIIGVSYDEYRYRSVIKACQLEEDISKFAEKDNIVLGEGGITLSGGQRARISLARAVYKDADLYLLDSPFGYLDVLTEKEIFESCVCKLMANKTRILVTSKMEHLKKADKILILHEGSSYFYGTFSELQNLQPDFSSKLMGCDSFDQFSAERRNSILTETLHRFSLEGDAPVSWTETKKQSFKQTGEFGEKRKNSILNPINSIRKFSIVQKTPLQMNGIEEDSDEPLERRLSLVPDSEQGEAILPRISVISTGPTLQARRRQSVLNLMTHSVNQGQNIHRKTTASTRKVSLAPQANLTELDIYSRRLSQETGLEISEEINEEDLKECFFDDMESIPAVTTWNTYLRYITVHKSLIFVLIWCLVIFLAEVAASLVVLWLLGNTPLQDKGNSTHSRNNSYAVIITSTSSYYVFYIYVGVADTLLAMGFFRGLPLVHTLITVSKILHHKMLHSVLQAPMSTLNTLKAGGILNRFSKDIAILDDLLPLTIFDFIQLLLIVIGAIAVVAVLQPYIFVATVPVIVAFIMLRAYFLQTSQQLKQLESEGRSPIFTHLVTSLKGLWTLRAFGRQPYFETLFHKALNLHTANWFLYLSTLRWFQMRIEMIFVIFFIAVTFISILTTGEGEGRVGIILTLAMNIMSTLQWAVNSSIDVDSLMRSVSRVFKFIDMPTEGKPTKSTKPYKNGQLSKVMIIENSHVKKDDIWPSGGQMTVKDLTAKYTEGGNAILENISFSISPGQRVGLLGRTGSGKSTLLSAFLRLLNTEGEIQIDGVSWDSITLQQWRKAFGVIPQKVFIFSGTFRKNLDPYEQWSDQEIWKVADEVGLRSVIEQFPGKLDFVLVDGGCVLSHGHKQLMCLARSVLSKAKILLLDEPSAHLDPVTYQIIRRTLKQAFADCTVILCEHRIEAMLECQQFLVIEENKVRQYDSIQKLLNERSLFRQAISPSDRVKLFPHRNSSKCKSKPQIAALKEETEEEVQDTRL

EC50 [1] | EC50 [2] | Maximum % activity (with co-corrector) | Maximum % activity (without co-corrector) | Structure (SMILES)
< 1000 nM | < 1000 nM | +++ (≥350) | ++ (≥100 and <200) | COc1ncc(C2CCC2)cc1CO[C@H]1[C@H](C(C)(C)C)[C@@H](C(=O)O)N(C(=O)OC(C)C(F)(F)F)[C@H]1c1cccnc1OC(C)C (stereo partly drawn) [Example 265, (2S,3R,4S,5S)-3-tert-butyl-4-[(5-cyclobutyl-2-methoxypyridin-3-yl)methoxy]-5-{2-[(propan-2-yl)oxy]pyridin-3-yl}-1-{[(1,1,1-trifluoropropan-2-yl)oxy]carbonyl}pyrrolidine-2-carboxylic acid]
1000 to 10000 nM | 1000 to 10000 nM | +++ (≥350) | ++ (≥100 and <200) | COc1ncc(C(F)(F)F)cc1CO[C@H]1[C@H](C(C)(C)C)[C@@H](C(=O)O)N(C(=O)C2CCCCC2)[C@H]1c1ccccc1F [Example 48, (2S,3R,4S,5S)-3-tert-butyl-1-(cyclohexanecarbonyl)-5-(2-fluorophenyl)-4-{[2-methoxy-5-(trifluoromethyl)pyridin-3-yl]methoxy}pyrrolidine-2-carboxylic acid]
< 1000 nM | < 1000 nM | +++ (≥350) | +++ (≥200) | COc1ncc(C(F)(F)F)cc1CO[C@H]1[C@H](C(C)(C)OC)[C@@H](C(=O)O)N(C(=O)OC(C)C)[C@H]1c1ccccc1C(C)C [Example 259, (2S,3R,4S,5S)-3-(2-methoxypropan-2-yl)-4-{[2-methoxy-5-(trifluoromethyl)pyridin-3-yl]methoxy}-1-{[(propan-2-yl)oxy]carbonyl}-5-[2-(propan-2-yl)phenyl]pyrrolidine-2-carboxylic acid]
1000 to 10000 nM | 1000 to 10000 nM | +++ (≥350) | ++ (≥100 and <200) | COc1ncc(C(F)(F)F)cc1CO[C@H]1[C@H](C(C)(C)C)[C@@H](C(=O)O)N(C(=O)[C@@H]2CCCCO2)[C@H]1c1ccccc1-c1cnn(C)c1 [Example 193, (2S,3R,4S,5S)-3-tert-butyl-4-{[2-methoxy-5-(trifluoromethyl)pyridin-3-yl]methoxy}-5-[2-(1-methyl-1H-pyrazol-4-yl)phenyl]-1-[(2S)-oxane-2-carbonyl]pyrrolidine-2-carboxylic acid]
< 1000 nM | < 1000 nM | +++ (≥350) | +++ (≥200) | COc1ncc(C(F)(F)F)cc1CO[C@H]1[C@H](C(C)(C)OC)[C@@H](C(=O)O)N(C(=O)[C@@H]2CCCCO2)[C@H]1c1ccccc1C(C)C [Example 260, (2S,3R,4S,5S)-3-(2-methoxypropan-2-yl)-4-{[2-methoxy-5-(trifluoromethyl)pyridin-3-yl]methoxy}-1-[(2S)-oxane-2-carbonyl]-5-[2-(propan-2-yl)phenyl]pyrrolidine-2-carboxylic acid]
< 1000 nM | < 1000 nM | +++ (≥350) | + (<100) | COc1ncc(-c2ccc(F)cc2C)cc1CO[C@H]1[C@H](C(C)(C)C)[C@@H](C(=O)O)N(C(=O)OC(C)C)[C@H]1c1ccccc1 [Example 67, (2S,3R,4S,5S)-3-tert-butyl-4-{[5-(4-fluoro-2-methylphenyl)-2-methoxypyridin-3-yl]methoxy}-5-phenyl-1-{[(propan-2-yl)oxy]carbonyl}pyrrolidine-2-carboxylic acid]

More lines, now with the values behind:

Structure (SMILES) | EC50 [1] | EC50 [2] | Maximum % activity (with co-corrector) | Maximum % activity (without co-corrector)
COc1ncc(C(F)(F)F)cc1CO[C@H]1[C@H](C(C)(C)C)[C@@H](C(=O)O)N(C(=O)[C@@H]2CCCCO2)[C@H]1c1ccccc1-c1ccccc1C [Example 195, (2S,3R,4S,5S)-3-tert-butyl-4-{[2-methoxy-5-(trifluoromethyl)pyridin-3-yl]methoxy}-5-(2′-methyl[1,1′-biphenyl]-2-yl)-1-[(2S)-oxane-2-carbonyl]pyrrolidine-2-carboxylic acid] | 1000 to 10000 nM | 1000 to 10000 nM | +++ (≥350) | +++ (≥200)
COCCS(=O)(=O)NC(=O)[C@@H]1[C@@H](C(C)(C)C)[C@H](OCc2cc(C(F)(F)F)ccc2OC)[C@H](c2ccccc2)N1C(=O)C1CCCCC1 [Example 21, (2S,3R,4S,5S)-3-tert-butyl-1-(cyclohexanecarbonyl)-N-(2-methoxyethanesulfonyl)-4-{[2-methoxy-5-(trifluoromethyl)phenyl]methoxy}-5-phenylpyrrolidine-2-carboxamide] | > 10000 nM | 1000 to 10000 nM | ++ (≥150 and <350) | + (<100)
CN(C)c1ncc(C(F)(F)F)cc1CO[C@@H]1[C@@H](C(C)(C)C)[C@H](C(=O)O)N(C(=O)C2CCCCC2)[C@@H]1c1ccccc1 (racemic) [Example 12, rac-(2R,3S,4R,5R)-3-tert-butyl-1-(cyclohexanecarbonyl)-4-{[2-(dimethylamino)-5-(trifluoromethyl)pyridin-3-yl]methoxy}-5-phenylpyrrolidine-2-carboxylic acid] | 1000 to 10000 nM | 1000 to 10000 nM | +++ (≥350) | ++ (≥100 and <200)
COc1ccc(C(F)(F)F)cc1CO[C@H]1[C@H](C(C)(C)C)[C@@H](C(=O)NS(=O)(=O)N(C)C)N(C(=O)C2CCCCC2)[C@H]1c1ccccc1 [Example 25, (2S,3R,4S,5S)-3-tert-butyl-1-(cyclohexanecarbonyl)-N-(dimethylsulfamoyl)-4-{[2-methoxy-5-(trifluoromethyl)phenyl]methoxy}-5-phenylpyrrolidine-2-carboxamide] | > 10000 nM | 1000 to 10000 nM | ++ (≥150 and <350) | + (<100)
COc1ncc(C(F)(F)F)cc1CO[C@H]1[C@H](C(C)(C)C)[C@@H](C(=O)O)N(C(=O)[C@H]2CCCCO2)[C@H]1c1ccccc1 [Example 91, (2S,3R,4S,5S)-3-tert-butyl-4-{[2-methoxy-5-(trifluoromethyl)pyridin-3-yl]methoxy}-1-[(2R)-oxane-2-carbonyl]-5-phenylpyrrolidine-2-carboxylic acid] | 1000 to 10000 nM | 1000 to 10000 nM | +++ (≥350) | ++ (≥100 and <200)
COc1ncc(C(C)(C)C)cc1CO[C@H]1[C@H](C(C)(C)C)[C@@H](C(=O)O)N(C(=O)C2CCCCC2)[C@H]1c1ccccc1 [Example 60, (2S,3R,4S,5S)-3-tert-butyl-4-[(5-tert-butyl-2-methoxypyridin-3-yl)methoxy]-1-(cyclohexanecarbonyl)-5-phenylpyrrolidine-2-carboxylic acid] | < 1000 nM | < 1000 nM | +++ (≥350) | ++ (≥100 and <200)
COc1ncc(C2CCC2)cc1CO[C@H]1[C@H](C(C)(C)C)[C@@H](C(=O)O)N(C(=O)[C@H]2CCCCO2)[C@H]1c1cccnc1OC(C)C [Example 135, (2S,3R,4S,5S)-3-tert-butyl-4-[(5-cyclobutyl-2-methoxypyridin-3-yl)methoxy]-1-[(2R)-oxane-2-carbonyl]-5-{2-[(propan-2-yl)oxy]pyridin-3-yl}pyrrolidine-2-carboxylic acid] | 1000 to 10000 nM | < 1000 nM | +++ (≥350) | ++ (≥100 and <200)
COc1ncc(C(F)(F)F)cc1CO[C@H]1[C@H](C(C)(C)C)[C@@H](C(=O)O)N(C(=O)[C@@H]2CCCCO2)[C@H]1c1cccc2c1CCCC2 [Example 219, (2S,3R,4S,5S)-3-tert-butyl-4-{[2-methoxy-5-(trifluoromethyl)pyridin-3-yl]methoxy}-1-[(2S)-oxane-2-carbonyl]-5-(5,6,7,8-tetrahydronaphthalen-1-yl)pyrrolidine-2-carboxylic acid] | < 1000 nM | < 1000 nM | +++ (≥350) | +++ (≥200)
COc1ncc(C2CCC2)cc1CO[C@H]1[C@H](C(C)(C)C)[C@@H](C(=O)O)N(C(=O)C2CCOCC2)[C@H]1c1ccccc1C1CC1 [Example 150, (2S,3R,4S,5S)-3-tert-butyl-4-[(5-cyclobutyl-2-methoxypyridin-3-yl)methoxy]-5-(2-cyclopropylphenyl)-1-(oxane-4-carbonyl)pyrrolidine-2-carboxylic acid] | 1000 to 10000 nM | < 1000 nM | +++ (≥350) | ++ (≥100 and <200)
COc1nc2ccccc2cc1CO[C@H]1[C@H](C(C)(C)C)[C@@H](C(=O)O)N(C(=O)[C@@H]2CCCO2)[C@H]1c1ccnn1C(C)C [Example 148, (2S,3R,4S,5S)-3-tert-butyl-4-[(2-methoxyquinolin-3-yl)methoxy]-1-[(2S)-oxolane-2-carbonyl]-5-[1-(propan-2-yl)-1H-pyrazol-5-yl]pyrrolidine-2-carboxylic acid] | > 10000 nM | > 10000 nM | + (<150) | + (<100)
